Values after ≈ are worked out from the molar mass of the structure shown. Where two headings read alike, the source gives them in different places.
Experiments:
[1] = system: Enterococcus faecalis—S613 HM-334; assay: MIC, broth microdilution in TSB; type: cell-based; settings: Enterococcus, TSB
Outline: (§1)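 Overnight 37° C agar cultures → 0.5 McFarland → ~5×10^5 CFU/mL in broth; compounds serially diluted; aerobic 37° C, 18-20 h; endpoint is lowest concentration without visible growth.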

[2] = system: Enterococcus faecium E417-HM-965; assay: MIC, broth microdilution in TSB; type: cell-based; settings: Enterococcus faecium, E417HM965, TSB
Outline: as §1

[3] = system: Enterococcus faecium Patient #2-1-NR-31909; assay: MIC, broth microdilution in TSB; type: cell-based; settings: Enterococcus faecium, TSB
Outline: as §1

[4] = system: Enterococcus faecium Patient #3-1 NR-31912; assay: MIC, broth microdilution in TSB; type: cell-based; settings: Enterococcus faecium, TSB
Outline: as §1

[5] = system: Enterococcus fecalis Strain MMH594-NR31975; assay: MIC, broth microdilution in TSB; type: cell-based; settings: Enterococcus, TSB
Outline: as §1

[6] = system: Enterococcus fecalis Strain SF 24397 NR31970; assay: MIC, broth microdilution in TSB; type: cell-based; settings: Enterococcus, TSB
Outline: as §1

[7] = system: Enterococcus fecalis Strain SF 28073-NR31972; assay: MIC, broth microdilution in TSB; type: cell-based; settings: Enterococcus, TSB
Outline: as §1

[8] = system: Enterococcus fecalis Strain SF24413 NR31971; assay: MIC, broth microdilution in TSB; type: cell-based; settings: Enterococcus, TSB
Outline: as §1

[9] = system: MRSA NRS 384 (MRSA USA300); assay: MIC against Staphylococci, broth microdilution; type: cell-based, Staphylococcus aureus; settings: Staphylococcus aureus; TSB; read-out: MIC
Outline: (§2)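 CLSI broth microdilution in tryptone soy broth, inoculum about 5×10^5 CFU/mL from overnight agar cultures at 0.5 McFarland, with serially diluted compound. Plates were incubated aerobically at 37° C for 18-20 h. MIC was the lowest concentration with no visible growth.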

[10] = system: Staphylococcus epidermidis NRS 101; assay: MIC against Staphylococci, broth microdilution; type: cell-based; settings: Staphylococcus epidermidis, NRS101; TSB; read-out: MIC
Outline: as §2

[11] = system: Bacteroides dorei—CL02T12C06 HM-719; assay: MIC against human normal gut microbiota; type: cell-based; settings: Bacteroides; BHIS broth, anaerobic, 48 hours; read-out: MIC
Outline: (§3)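 Broth microdilution with ~5×10^5 CFU/ml inoculum from 0.5 McFarland suspension; Bifidobacterium and Bacteroides in supplemented BHI broth, anaerobic, Lactobacillus in MRS broth under 5% CO2. Plates with serial compound dilutions incubated 48 h at 37° C.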

[12] = system: Bacteroides fragilis—CL07T00C01 HIM-709; assay: MIC against human normal gut microbiota; type: cell-based; settings: Bacteroides; BHIS broth, anaerobic, 48 hours; read-out: MIC
Outline: as §3

[13] = system: Bifidobacterium breve—JCP7499 HIM 1120; assay: MIC against human normal gut microbiota; type: cell-based; settings: Bifidobacterium; BHIS broth, anaerobic, 48 hours; read-out: MIC
Outline: as §3

[14] = system: Bifidobacterium longum subsp. Longum—44B HM 845; assay: MIC against human normal gut microbiota; type: cell-based; settings: Bifidobacterium longum; BHIS broth, anaerobic, 48 hours; read-out: MIC
Outline: as §3

[15] = system: Lactobacillus casei ATCC 334; assay: MIC against human normal gut microbiota; type: cell-based; settings: Lacticaseibacillus casei, ATCC334; MRS broth, 5% CO2, 48 hours; read-out: MIC
Outline: as §3

[16] = system: Lactobacillus gasseri EX336960VC03 HIM-400; assay: MIC against human normal gut microbiota; type: cell-based; settings: Lactobacillus gasseri; MRS broth, 5% CO2, 48 hours; read-out: MIC
Outline: as §3

[17] = system: Mutant-3 of Enterococcus fecalis NR 31975; assay: microbe, parasite or virus in culture; type: cell-based; settings: Enterococcus
[18] = system: Mutant-4 of Enterococcus fecalis NR 31975; assay: microbe, parasite or virus in culture; type: cell-based; settings: Enterococcus
[19] = system: Mutant-5 of Enterococcus fecalis NR 31975; assay: microbe, parasite or virus in culture; type: cell-based; settings: Enterococcus
[20] = system: Mutant-6 of Enterococcus fecalis NR 31975; assay: microbe, parasite or virus in culture; type: cell-based; settings: Enterococcus
[21] = system: Mutant-7 of Enterococcus fecalis NR 31975; assay: microbe, parasite or virus in culture; type: cell-based; settings: Enterococcus
[22] = system: Mutant-8 of Enterococcus fecalis NR 31975; assay: microbe, parasite or virus in culture; type: cell-based; settings: Enterococcus
[23] = system: Mutant-12 of Enterococcus fecalis NR 31975; assay: microbe, parasite or virus in culture; type: cell-based; settings: Enterococcus
[24] = system: Mutant-13 of Enterococcus fecalis NR 31975; assay: microbe, parasite or virus in culture; type: cell-based; settings: Enterococcus
[25] = system: Mutant-14 of Enterococcus fecalis NR 31975; assay: microbe, parasite or virus in culture; type: cell-based; settings: Enterococcus

Compound	MIC ([1]; Table 1, read-out: MIC) [µg/mL]	MIC ([1]; Table 7, read-out: MIC in TSB) [µg/mL]	MIC ([2]; Table 1, read-out: MIC) [µg/mL]	MIC ([2]; Table 7, read-out: MIC in TSB) [µg/mL]	MIC ([5]; Table 1, read-out: MIC) [µg/mL]	MIC ([5]; Table 7, read-out: MIC in TSB) [µg/mL]	MIC ([6]; Table 1, read-out: MIC) [µg/mL]	MIC ([6]; Table 7, read-out: MIC in TSB) [µg/mL]	MIC ([7]; Table 1, read-out: MIC) [µg/mL]	MIC ([7]; Table 7, read-out: MIC in TSB) [µg/mL]	MIC ([8]; Table 1, read-out: MIC) [µg/mL]	MIC ([8]; Table 7, read-out: MIC in TSB) [µg/mL]	MIC [9] [µg/mL]	MIC [10] [µg/mL]	MIC [11] [µg/mL]	MIC [12] [µg/mL]	MIC [13] [µg/mL]	MIC [14] [µg/mL]	MIC [15] [µg/mL]	MIC [16] [µg/mL]	other results
CC(C)(C)C(=O)Nc1nnc(S(N)(=O)=O)s1 [CAI0010, N-(5-Sulfamoyl-1,3,4-thiadiazol-2-yl) pivalamide]	0.5 (≈ 1.89 µM)	0.125 (≈ 0.473 µM)	0.5 (≈ 1.89 µM)	0.25 (≈ 0.946 µM)	1 (≈ 3.78 µM)	0.25 (≈ 0.946 µM)	0.5 (≈ 1.89 µM)	0.25 (≈ 0.946 µM)	0.5 (≈ 1.89 µM)	0.5 (≈ 1.89 µM)	0.5 (≈ 1.89 µM)	0.25 (≈ 0.946 µM)	> 64	> 64	> 64	> 64	> 64	> 64	> 64	> 64	MIC ([3]; Table 1, read-out: MIC): 0.5 µg/mL (≈ 1.89 µM); MIC ([3]; Table 7, read-out: MIC in TSB): 0.125 µg/mL (≈ 0.473 µM); MIC ([4]; Table 1, read-out: MIC): 1 µg/mL (≈ 3.78 µM); MIC ([4]; Table 7, read-out: MIC in TSB): 0.25 µg/mL (≈ 0.946 µM); MIC [17]: 4 µg/mL (≈ 15.1 µM); MIC [18]: 8 µg/mL (≈ 30.3 µM); MIC [19]: 4 µg/mL (≈ 15.1 µM); MIC [20]: 16 µg/mL (≈ 60.5 µM); MIC [21]: 4 µg/mL (≈ 15.1 µM); MIC [22]: 8 µg/mL (≈ 30.3 µM); MIC [23]: 8 µg/mL (≈ 30.3 µM); MIC [24]: 4 µg/mL (≈ 15.1 µM); MIC [25]: 4 µg/mL (≈ 15.1 µM)
CCc1ccc(C(=O)Nc2nnc(S(N)(=O)=O)s2)cc1 [CAI0017, 4-Ethyl-N-(5-sulfamoyl-1,3,4-thiadiazol-2-yl)benzamide]	1 (≈ 3.2 µM)	1 (≈ 3.2 µM)	0.25 (≈ 0.8 µM)	0.25 (≈ 0.8 µM)	1 (≈ 3.2 µM)	1 (≈ 3.2 µM)	1 (≈ 3.2 µM)	1 (≈ 3.2 µM)	1 (≈ 3.2 µM)	1 (≈ 3.2 µM)	1 (≈ 3.2 µM)	1 (≈ 3.2 µM)	> 64	> 64	> 64	> 64	> 64	> 64	> 64	> 64	MIC ([3]; Table 1, read-out: MIC): 0.25 µg/mL (≈ 0.8 µM); MIC ([3]; Table 7, read-out: MIC in TSB): 0.25 µg/mL (≈ 0.8 µM); MIC ([4]; Table 1, read-out: MIC): 1 µg/mL (≈ 3.2 µM); MIC ([4]; Table 7, read-out: MIC in TSB): 1 µg/mL (≈ 3.2 µM); MIC [17]: 8 µg/mL (≈ 25.6 µM); MIC [18]: 16 µg/mL (≈ 51.2 µM); MIC [19]: 8 µg/mL (≈ 25.6 µM); MIC [20]: 8 µg/mL (≈ 25.6 µM); MIC [21]: 8 µg/mL (≈ 25.6 µM); MIC [22]: 8 µg/mL (≈ 25.6 µM); MIC [23]: 16 µg/mL (≈ 51.2 µM); MIC [24]: 16 µg/mL (≈ 51.2 µM); MIC [25]: 8 µg/mL (≈ 25.6 µM)
CC(C)C(=O)Nc1nnc(S(N)(=O)=O)s1 [CAI0011, N-(5-Sulfamoyl-1,3,4-thiadiazol-2-yl) isobutyramide]	2 (≈ 7.99 µM)	2 (≈ 7.99 µM)	1 (≈ 4 µM)	1 (≈ 4 µM)	2 (≈ 7.99 µM)	2 (≈ 7.99 µM)	2 (≈ 7.99 µM)	2 (≈ 7.99 µM)	2 (≈ 7.99 µM)	2 (≈ 7.99 µM)	2 (≈ 7.99 µM)	2 (≈ 7.99 µM)	> 64	> 64	> 64	> 64	> 64	> 64	> 64	> 64	MIC ([3]; Table 1, read-out: MIC): 1 µg/mL (≈ 4 µM); MIC ([3]; Table 7, read-out: MIC in TSB): 1 µg/mL (≈ 4 µM); MIC ([4]; Table 1, read-out: MIC): 1 µg/mL (≈ 4 µM); MIC ([4]; Table 7, read-out: MIC in TSB): 1 µg/mL (≈ 4 µM)
CC(=O)NC[C@H]1CN(c2ccc(N3CCOCC3)c(F)c2)C(=O)O1 [Linezolid, reference compound]	1 (≈ 2.96 µM)	1 (≈ 2.96 µM)	–	–	1 (≈ 2.96 µM)	1 (≈ 2.96 µM)	1 (≈ 2.96 µM)	1 (≈ 2.96 µM)	1 (≈ 2.96 µM)	1 (≈ 2.96 µM)	1 (≈ 2.96 µM)	1 (≈ 2.96 µM)	2 (≈ 5.93 µM)	≤ 0.5	1 (≈ 2.96 µM)	2 (≈ 5.93 µM)	≤ 0.5	≤ 0.5	1 (≈ 2.96 µM)	2 (≈ 5.93 µM)	MIC [17]: 4 µg/mL (≈ 11.9 µM); MIC [18]: 4 µg/mL (≈ 11.9 µM); MIC [19]: 4 µg/mL (≈ 11.9 µM); MIC [20]: 4 µg/mL (≈ 11.9 µM); MIC [21]: 2 µg/mL (≈ 5.93 µM); MIC [22]: 8 µg/mL (≈ 23.7 µM); MIC [23]: 4 µg/mL (≈ 11.9 µM); MIC [24]: 4 µg/mL (≈ 11.9 µM); MIC [25]: 4 µg/mL (≈ 11.9 µM)

Reference: patent US12378211B2, “Carbonic anhydrase inhibitors and antibiotics against multidrug resistant bacteria” (Purdue Research Foundation, priority 2018, dated 2025)
